This passage reports IC50 results from ChEMBL document CHEMBL1139320, “PEG-immobilization of cardol and soluble polymer-supported synthesis of some cardol-coumarin derivatives: preliminary evaluation of their inhibitory activity on mushroom tyrosinase” (Bioorg Med Chem Lett, 2009).

The experiment has as its target T1, Tyrosinase (Agaricus bisporus, UniProt O42713).
T1 sequence (O42713 whole entry): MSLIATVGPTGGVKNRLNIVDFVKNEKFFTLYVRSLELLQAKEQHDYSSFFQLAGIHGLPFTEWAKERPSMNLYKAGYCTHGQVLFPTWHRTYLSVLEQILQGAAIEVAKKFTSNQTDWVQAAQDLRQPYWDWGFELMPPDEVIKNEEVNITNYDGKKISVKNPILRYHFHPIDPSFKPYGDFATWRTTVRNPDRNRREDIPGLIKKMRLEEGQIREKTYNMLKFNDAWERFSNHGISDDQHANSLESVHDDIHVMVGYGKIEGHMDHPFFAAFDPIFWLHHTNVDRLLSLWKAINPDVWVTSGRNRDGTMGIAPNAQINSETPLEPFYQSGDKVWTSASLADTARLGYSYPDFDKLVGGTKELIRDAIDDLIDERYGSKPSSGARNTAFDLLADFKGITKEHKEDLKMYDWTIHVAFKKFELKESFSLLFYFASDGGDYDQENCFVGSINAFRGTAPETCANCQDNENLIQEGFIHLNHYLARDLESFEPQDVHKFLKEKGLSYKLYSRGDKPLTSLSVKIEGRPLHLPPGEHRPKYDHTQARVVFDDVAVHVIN
Description: Inhibition of mushroom tyrosine kinase assessed as oxidation of 0.25 mM L-3,4-dihydroxyphenylalanine

What is called IC50 is the concentration that inhibits the measured activity by half. Higher therefore signals lower potency. The compound `Oc1cccc(O)c1` [RESORCINOL] gave an IC50 of 1440 µM.

`CCCCCCc1ccc(O)cc1O` [HEXYLRESORCINOL] came in with a half-inhibitory concentration (IC50) of 0.98 µM.
